Results reported in patent publication US9040458B2, “Safening composition of 6-(trisubstituded phenyl)-4-amino-2-pyridinecarboxylate herbicides and cloquintocet-mexyl for cereal crops” (Dow AgroSciences LLC, priority 2008, dated 2015).
Structures can show the parent of a compound that is named as a salt.

Tests used:
Type in all cases: in vivo
[1] = tested on: TRZAS = Triticum aestivum (spring wheat); assay: Postemergence herbicidal safening, greenhouse, visual injury; conditions: 20-22 d, listed as (1) K-salt
Experimental: (§1) Seeds of the desired test plant species were planted in Sun Gro MetroMix® 306 planting mixture, which typically has a pH of 6.0 to 6.8 and an organic matter content of about 30 percent, in plastic pots with a surface area of 103.2 square centimeters (cm^2). When required to ensure good germination and healthy plants, a fungicide treatment and/or other chemical or physical treatment was applied. The plants were grown for 7-36 days (d) in a greenhouse with an approximate […] photoperiod which was maintained at about 18° C. during the day and 17° C. during the night. Nutrients and water were added on a regular basis and supplemental lighting was provided with overhead metal halide 1000-Watt lamps as necessary. The plants were employed for testing when they reached the second or third true leaf stage.
(§2) Weighed amounts of esters (methyl) or salts (TEA [triethylammonium], potassium [K]) of 4-amino-3-chloro-6-(4-chloro-2-fluoro-3-methoxyphenyl)pyridine-2-carboxylic acid (Compound 1) were dissolved in a volume of 97:3 volume/volume (v/v) acetone/dimethylsulfoxide (DMSO) to obtain stock solutions. […] The concentrated stock solutions were diluted with an aqueous mixture of 1.5% v/v of Agri-dex crop oil concentrate to provide the appropriate application rates. Compound requirements are based upon a 12 mL application volume at a rate of 187 liters per hectare (L/ha). Stocks solutions of the safeners were prepared following the same procedure. Spray solutions of the safeners and experimental compound mixtures were prepared by adding the appropriate volume of both stock solutions to the appropriate amount of dilution solution to form a 12 mL spray solution with active ingredients in two-way combinations. Formulated compounds were applied to the plant material with an overhead Mandel track sprayer equipped with 8002E nozzles calibrated to deliver 187 L/ha over an application area of 0.503 square meters (m^2) at a spray height of 18 inches (43 centimeters (cm)) above average plant canopy. Control plants were sprayed in the same manner with the solvent blank.
(§3) The treated plants and control plants were placed in a greenhouse as described above and watered by sub-irrigation to prevent wash-off of the test compounds. After 20-22 d, the condition of the test plants as compared with that of the control plants was determined visually and scored on a scale of 0 to 100 percent where 0 corresponds to no injury and 100 corresponds to complete kill.
(§4) Colby's equation was used to determine the herbicidal effects expected from the mixtures (Colby, S. R., Calculation of the synergistic and antagonistic response of herbicide combinations. Weeds 1967, 15, 20-22.).
(§5) The following equation was used to calculate the expected activity of mixtures containing two active ingredients, A and B: Expected=A+B−(A×B/100)
(§6) A=observed efficacy of active ingredient A at the same concentration as used in the mixture.
(§7) B=observed efficacy of active ingredient B at the same concentration as used in the mixture.

[2] = tested on: HORVS = Hordeum vulgare (spring barley); assay: as above; conditions: 20-22 d, listed as (1) K-salt
Experimental: as §1, §2, §3, §4, §5, §6, §7

[3] = tested on: VIOTR = Viola tricolor (wild pansy); assay: Postemergence herbicidal activity, greenhouse, visual injury; conditions: applied alone at 140 g/ha; 20-22 d; listed as (1) K-salt
Experimental: as §1, §2, §3, §4, §5, §6, §7

[4] = tested on: VERPE = Veronica persica (bird's-eye speedwell); assay: as above; conditions: applied alone at 140 g/ha; 20-22 d; listed as (1) K-salt
Experimental: as §1, §2, §3, §4, §5, §6, §7

[5] = tested on: MATCH = Matricaria chamomila (scented mayweed); assay: as above; conditions: applied alone at 140 g/ha; 20-22 d; listed as (1) K-salt
Experimental: as §1, §2, §3, §4, §5, §6, §7

[6] = tested on: SASKR = Salsola iberica (Russian thistle); assay: as above; conditions: applied alone at 140 g/ha; 20-22 d; listed as (1) K-salt
Experimental: as §1, §2, §3, §4, §5, §6, §7

[7] = tested on: KCHSC = Kochia scoparia (kochia); assay: as above; conditions: applied alone at 140 g/ha; 20-22 d; listed as (1) K-salt
Experimental: as §1, §2, §3, §4, §5, §6, §7

COc1c(Cl)ccc(-c2cc(N)c(Cl)c(C(=O)O)n2)c1F [Compound (1) K-salt, 4-amino-3-chloro-6-(4-chloro-2-fluoro-3-methoxyphenyl)pyridine-2-carboxylic acid]
TRZAS Ob (observed injury) ([1]; applied alone at 8.75 g/ha): 15% | TRZAS Ob (observed injury) ([1]; applied alone at 35 g/ha): 43% | TRZAS Ob (observed injury) ([1]; applied alone at 70 g/ha): 11% | TRZAS Ob (observed injury) ([1]; applied alone at 140 g/ha): 52% | HORVS Ob (observed injury) ([2]; applied alone at 8.75 g/ha): 25% | HORVS Ob (observed injury) ([2]; applied alone at 35 g/ha): 38% | HORVS Ob (observed injury) ([2]; applied alone at 140 g/ha): 45% | VIOTR Ob (observed injury) [3]: 63% | VERPE Ob (observed injury) [4]: 87% | MATCH Ob (observed injury) [5]: 88% | SASKR Ob (observed injury) [6]: 87% | KCHSC Ob (observed injury) [7]: 100%
